Laboratory results published in US7452887B2, “Quinoline- and isoquinoline-based compounds exhibiting ATP-utilizing enzyme inhibitory activity, and compositions, and uses thereof” (Amphora Discovery Corporation, priority 2004, dated 2008).

What was measured:
Test in all cases: HTS ATP-utilizing enzyme assay, off-chip mobility-shift (Caliper HTS 250)
Assay type in all cases: biochemical
Details in all cases: test compound 10 μM, kinase listed = active (greater than six-sigma from the mean activity of inactive compounds)
AKT3 = AKT3 (Homo sapiens, UniProt Q9Y243)
Summary of the method: (§1)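 Compounds were tested once at 10 μM against kinase with peptide substrate. After 2.5 hrs at 20° C. to 22° C., reactions were terminated with EDTA, and conversion was read as substrate/product ratio by mobility shift.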

PRAK = molecular target: T1, PRAK (Homo sapiens, UniProt Q8IW41)
T1 sequence (Q8IW41 1-473): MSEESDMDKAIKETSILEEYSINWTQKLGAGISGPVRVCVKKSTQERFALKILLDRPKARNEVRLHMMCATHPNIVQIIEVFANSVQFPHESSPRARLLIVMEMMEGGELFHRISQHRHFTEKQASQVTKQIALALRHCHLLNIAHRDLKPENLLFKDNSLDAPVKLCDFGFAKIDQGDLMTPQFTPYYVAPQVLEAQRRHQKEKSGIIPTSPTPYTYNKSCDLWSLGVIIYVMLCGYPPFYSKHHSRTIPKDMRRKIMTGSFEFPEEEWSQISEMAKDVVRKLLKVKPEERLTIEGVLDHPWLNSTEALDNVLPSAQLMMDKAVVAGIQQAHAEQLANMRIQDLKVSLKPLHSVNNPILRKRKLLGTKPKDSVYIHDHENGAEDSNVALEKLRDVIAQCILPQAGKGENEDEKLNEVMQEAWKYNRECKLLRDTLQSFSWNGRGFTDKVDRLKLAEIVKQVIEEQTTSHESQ
Summary of the method: as §1

MAPKAPK2 = MAPKAPK2 (Homo sapiens, UniProt P49137)
Summary of the method: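 Phosphorylation of a peptide substrate was quantified by Caliper mobility-shift separation of substrate and product after 2.5 h at 20-22 °C, with compounds tested at 10 μM. Inhibition was normalized to EDTA-quenched (100%) and DMSO (0%) controls; six-sigma thresholds flagged actives.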

KIT = KIT (Homo sapiens, UniProt P10721)
Summary of the method: as §1

FLT-3 = molecular target: T2, FLT-3 (Homo sapiens, UniProt P36888)
T2 sequence (P36888 27-993): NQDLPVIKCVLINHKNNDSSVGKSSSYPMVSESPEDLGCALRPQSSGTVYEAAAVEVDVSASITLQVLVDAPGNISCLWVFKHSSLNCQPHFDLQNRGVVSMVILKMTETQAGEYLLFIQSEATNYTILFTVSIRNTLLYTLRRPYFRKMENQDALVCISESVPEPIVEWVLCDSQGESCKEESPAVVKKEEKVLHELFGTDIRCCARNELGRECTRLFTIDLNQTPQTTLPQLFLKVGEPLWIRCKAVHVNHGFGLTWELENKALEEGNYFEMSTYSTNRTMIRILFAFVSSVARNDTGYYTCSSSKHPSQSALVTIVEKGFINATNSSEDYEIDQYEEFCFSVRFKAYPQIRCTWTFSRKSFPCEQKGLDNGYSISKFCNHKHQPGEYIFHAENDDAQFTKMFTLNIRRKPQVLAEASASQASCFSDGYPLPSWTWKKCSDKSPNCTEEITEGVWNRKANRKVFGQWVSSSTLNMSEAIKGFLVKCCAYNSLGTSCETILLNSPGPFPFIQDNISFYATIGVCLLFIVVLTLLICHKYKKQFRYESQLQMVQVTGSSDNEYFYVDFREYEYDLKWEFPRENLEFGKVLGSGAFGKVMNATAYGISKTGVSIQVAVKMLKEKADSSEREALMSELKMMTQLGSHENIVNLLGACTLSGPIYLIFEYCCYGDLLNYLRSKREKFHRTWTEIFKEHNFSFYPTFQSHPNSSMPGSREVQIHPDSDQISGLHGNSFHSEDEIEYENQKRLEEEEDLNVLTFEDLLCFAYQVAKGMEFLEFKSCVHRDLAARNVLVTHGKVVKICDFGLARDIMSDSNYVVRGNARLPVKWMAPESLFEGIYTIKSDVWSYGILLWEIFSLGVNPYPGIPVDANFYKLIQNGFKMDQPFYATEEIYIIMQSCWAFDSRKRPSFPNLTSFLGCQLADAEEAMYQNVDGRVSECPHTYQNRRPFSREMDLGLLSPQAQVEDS
Summary of the method: as §1

BMX = molecular target: T3, BMX (Homo sapiens, UniProt P51813)
T3 sequence (P51813 1-675): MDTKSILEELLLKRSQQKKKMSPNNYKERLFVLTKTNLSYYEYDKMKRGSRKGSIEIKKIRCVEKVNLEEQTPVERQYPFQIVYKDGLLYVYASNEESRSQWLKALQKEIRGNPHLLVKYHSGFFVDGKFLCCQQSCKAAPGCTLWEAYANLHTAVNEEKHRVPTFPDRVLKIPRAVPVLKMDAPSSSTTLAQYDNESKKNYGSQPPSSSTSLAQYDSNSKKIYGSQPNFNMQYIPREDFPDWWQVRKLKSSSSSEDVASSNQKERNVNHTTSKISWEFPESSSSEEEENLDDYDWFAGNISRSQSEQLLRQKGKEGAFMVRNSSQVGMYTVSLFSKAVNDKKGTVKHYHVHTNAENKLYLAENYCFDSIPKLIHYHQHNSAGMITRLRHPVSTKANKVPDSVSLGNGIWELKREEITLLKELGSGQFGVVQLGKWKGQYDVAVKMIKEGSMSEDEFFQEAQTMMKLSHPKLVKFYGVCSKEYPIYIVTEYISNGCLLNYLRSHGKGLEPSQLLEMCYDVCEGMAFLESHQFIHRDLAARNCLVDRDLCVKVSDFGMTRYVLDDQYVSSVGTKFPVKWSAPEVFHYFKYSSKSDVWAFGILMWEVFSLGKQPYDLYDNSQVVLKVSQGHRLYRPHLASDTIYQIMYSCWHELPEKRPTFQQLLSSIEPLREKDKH
Summary of the method: as §1

CHEK2 = CHEK2 (Homo sapiens, UniProt O96017)
Summary of the method: as §1

CHEK1 = molecular target: T4, CHEK1 (Homo sapiens, UniProt O14757)
T4 sequence (O14757 1-476): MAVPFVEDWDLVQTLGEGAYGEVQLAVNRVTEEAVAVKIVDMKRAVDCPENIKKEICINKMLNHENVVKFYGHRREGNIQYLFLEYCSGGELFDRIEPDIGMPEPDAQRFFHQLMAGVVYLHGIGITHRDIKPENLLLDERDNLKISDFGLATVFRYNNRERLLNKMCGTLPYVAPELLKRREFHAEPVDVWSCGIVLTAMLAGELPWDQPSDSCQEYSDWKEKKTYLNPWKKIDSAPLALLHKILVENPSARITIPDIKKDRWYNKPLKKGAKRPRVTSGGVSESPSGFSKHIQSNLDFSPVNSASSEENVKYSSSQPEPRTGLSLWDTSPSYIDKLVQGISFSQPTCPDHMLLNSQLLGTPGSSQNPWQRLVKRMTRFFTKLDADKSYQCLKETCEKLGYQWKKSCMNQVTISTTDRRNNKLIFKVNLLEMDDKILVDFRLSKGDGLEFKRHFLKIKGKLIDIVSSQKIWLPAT
Summary of the method: as §1

NEK2 = molecular target: T5, NEK2 (Homo sapiens, UniProt P51955)
T5 sequence (P51955 1-445): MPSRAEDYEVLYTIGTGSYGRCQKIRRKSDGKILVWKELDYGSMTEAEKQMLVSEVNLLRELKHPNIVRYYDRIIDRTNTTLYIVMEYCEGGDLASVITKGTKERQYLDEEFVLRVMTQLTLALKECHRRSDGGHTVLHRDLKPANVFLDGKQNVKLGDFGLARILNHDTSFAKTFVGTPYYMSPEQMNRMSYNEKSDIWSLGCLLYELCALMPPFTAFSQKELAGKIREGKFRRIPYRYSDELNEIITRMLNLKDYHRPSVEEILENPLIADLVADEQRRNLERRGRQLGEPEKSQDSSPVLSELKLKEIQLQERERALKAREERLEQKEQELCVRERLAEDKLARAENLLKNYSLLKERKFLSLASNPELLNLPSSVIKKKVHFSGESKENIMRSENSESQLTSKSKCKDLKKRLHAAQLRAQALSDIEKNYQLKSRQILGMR
Summary of the method: as §1

GSK3-α = GSK3-α (Homo sapiens, UniProt P49840)
Summary of the method: as §1

C-TAK1 = C-TAK1 (Homo sapiens, UniProt P27448)
Summary of the method: as §1

MAPKAPK2, sequence (P49137 whole entry): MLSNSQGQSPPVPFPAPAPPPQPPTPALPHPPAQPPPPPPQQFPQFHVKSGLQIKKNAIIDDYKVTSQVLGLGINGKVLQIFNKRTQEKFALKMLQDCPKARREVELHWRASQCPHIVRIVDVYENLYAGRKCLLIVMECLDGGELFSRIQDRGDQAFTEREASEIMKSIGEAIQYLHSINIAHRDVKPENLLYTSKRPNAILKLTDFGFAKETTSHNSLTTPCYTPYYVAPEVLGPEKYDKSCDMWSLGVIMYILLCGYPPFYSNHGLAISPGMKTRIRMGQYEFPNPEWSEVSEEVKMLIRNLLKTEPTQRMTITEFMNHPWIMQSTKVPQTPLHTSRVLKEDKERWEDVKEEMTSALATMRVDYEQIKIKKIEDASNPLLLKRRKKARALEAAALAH
C-TAK1, sequence (P27448 whole entry): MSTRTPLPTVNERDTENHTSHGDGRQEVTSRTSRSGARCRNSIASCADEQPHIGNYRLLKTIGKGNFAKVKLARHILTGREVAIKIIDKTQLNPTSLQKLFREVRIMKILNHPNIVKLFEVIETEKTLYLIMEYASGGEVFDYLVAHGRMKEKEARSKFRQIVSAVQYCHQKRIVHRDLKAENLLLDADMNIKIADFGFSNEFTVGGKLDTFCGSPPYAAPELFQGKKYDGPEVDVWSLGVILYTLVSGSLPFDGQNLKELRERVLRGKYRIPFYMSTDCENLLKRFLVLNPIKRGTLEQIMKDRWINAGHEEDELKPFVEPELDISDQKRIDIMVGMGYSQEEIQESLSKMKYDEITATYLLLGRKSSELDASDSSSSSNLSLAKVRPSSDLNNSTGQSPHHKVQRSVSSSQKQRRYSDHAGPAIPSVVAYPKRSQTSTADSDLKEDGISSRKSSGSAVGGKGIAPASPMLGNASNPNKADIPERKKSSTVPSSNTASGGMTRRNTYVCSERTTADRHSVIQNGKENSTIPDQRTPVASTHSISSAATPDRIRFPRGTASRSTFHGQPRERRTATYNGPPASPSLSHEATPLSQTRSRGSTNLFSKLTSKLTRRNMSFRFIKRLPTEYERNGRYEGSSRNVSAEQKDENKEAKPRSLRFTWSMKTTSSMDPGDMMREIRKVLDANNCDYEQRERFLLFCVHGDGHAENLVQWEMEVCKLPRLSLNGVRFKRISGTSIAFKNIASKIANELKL
AKT3, sequence (Q9Y243 whole entry): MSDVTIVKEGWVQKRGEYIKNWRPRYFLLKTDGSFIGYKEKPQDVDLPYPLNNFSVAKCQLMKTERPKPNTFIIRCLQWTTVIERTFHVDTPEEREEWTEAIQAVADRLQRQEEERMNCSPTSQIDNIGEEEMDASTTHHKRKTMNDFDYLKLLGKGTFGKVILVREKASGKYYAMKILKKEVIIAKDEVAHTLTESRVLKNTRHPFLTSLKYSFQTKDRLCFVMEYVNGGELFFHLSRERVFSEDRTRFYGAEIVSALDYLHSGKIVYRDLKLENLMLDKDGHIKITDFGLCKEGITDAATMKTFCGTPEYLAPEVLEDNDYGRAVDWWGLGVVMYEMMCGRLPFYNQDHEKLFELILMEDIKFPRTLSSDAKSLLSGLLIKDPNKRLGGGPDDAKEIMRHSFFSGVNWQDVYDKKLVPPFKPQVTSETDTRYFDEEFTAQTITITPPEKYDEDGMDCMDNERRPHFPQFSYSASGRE
KIT, sequence (P10721 26-976): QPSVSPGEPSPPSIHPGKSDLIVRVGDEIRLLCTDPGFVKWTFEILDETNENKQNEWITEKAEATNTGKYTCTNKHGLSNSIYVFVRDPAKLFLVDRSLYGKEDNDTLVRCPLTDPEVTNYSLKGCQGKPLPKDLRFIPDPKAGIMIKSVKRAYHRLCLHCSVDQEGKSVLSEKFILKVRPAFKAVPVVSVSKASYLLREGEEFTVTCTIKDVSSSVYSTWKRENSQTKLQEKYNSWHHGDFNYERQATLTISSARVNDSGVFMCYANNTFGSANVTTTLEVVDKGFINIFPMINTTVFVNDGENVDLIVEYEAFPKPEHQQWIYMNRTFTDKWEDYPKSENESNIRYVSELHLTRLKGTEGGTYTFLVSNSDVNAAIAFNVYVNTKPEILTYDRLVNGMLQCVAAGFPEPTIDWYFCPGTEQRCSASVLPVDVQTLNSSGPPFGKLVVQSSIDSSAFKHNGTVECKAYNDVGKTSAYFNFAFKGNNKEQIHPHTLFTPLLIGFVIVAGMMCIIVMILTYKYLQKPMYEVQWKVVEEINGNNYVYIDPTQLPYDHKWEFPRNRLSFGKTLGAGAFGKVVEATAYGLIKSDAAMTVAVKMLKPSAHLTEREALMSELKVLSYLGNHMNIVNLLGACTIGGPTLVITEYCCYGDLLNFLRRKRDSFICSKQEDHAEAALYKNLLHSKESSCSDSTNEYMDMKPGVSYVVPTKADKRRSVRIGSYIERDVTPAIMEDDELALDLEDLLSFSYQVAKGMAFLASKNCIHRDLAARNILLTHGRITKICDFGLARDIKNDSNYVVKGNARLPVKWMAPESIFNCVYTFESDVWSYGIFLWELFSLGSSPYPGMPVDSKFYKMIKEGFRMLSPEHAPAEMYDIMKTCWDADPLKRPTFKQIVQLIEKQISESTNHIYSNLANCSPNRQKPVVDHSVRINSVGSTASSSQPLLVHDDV
GSK3-α, sequence (P49840 whole entry): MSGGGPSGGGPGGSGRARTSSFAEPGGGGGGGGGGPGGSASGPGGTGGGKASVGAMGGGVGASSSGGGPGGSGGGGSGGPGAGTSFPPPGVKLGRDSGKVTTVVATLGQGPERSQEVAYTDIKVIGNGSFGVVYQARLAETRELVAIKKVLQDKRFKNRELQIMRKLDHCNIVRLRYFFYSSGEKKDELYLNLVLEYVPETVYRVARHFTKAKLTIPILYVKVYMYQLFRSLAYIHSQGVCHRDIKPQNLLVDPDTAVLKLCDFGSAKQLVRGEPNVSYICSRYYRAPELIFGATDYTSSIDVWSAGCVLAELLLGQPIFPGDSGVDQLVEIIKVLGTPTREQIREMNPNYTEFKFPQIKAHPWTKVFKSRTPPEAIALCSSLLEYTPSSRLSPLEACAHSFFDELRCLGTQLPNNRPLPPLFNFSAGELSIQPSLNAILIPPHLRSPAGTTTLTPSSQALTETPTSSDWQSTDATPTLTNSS
CHEK2, sequence (O96017 whole entry): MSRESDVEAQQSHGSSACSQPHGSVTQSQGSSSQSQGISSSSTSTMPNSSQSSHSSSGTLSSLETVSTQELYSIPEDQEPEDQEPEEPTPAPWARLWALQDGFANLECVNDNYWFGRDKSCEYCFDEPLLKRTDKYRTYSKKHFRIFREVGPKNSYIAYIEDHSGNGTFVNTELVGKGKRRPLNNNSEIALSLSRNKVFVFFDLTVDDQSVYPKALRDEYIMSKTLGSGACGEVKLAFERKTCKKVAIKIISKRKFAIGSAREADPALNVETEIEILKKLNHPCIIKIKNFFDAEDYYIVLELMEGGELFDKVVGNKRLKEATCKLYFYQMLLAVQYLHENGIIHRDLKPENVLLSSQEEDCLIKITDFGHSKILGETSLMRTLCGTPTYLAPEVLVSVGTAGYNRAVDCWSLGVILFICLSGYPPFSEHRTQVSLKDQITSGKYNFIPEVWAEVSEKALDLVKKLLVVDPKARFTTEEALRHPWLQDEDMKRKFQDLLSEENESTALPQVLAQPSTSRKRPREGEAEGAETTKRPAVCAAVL

Row | Structure (SMILES) | Activity (PRAK) | Activity (MAPKAPK2) | Activity (BMX) | also measured
1 | CN1CCN(c2ccc(Nc3ccnc4ccc(-c5cccnc5)cc34)cc2)CC1 [N-(4-(4-methylpiperazin-1-yl)phenyl)-6-(pyridin-3-yl)quinolin-4-amine] | PRAK | MAPKAPK2 | – | Activity (AKT3): AKT3
2 | CN1CCN(c2ccc(N(C)c3ccnc4ccc(-c5ccccc5)cc34)cc2)CC1 [N-methyl-N-(4-(4-methylpiperazin-1-yl)phenyl)-6-phenylquinolin-4-amine] | – | MAPKAPK2 | BMX | Activity (KIT): KIT; Activity (FLT-3): FLT-3
3 | CN1CCN(c2ccc(Nc3ccnc4ccc(-c5cccc(CO)c5)cc34)cc2)CC1 [(3-(4-(4-(4-methylpiperazin-1-yl)phenylamino)quinolin-6-yl)phenyl)methanol] | PRAK | MAPKAPK2 | – | Activity (FLT-3): FLT3; Activity (CHEK2): CHEK2
4 | CN1CCN(c2ccc(Nc3ccnc4ccc(-c5cc(F)c(F)c(F)c5)cc34)cc2)CC1 [N-(4-(4-methylpiperazin-1-yl)phenyl)-6-(3,4,5-trifluorophenyl)quinolin-4-amine] | PRAK | MAPKAPK2 | – | Activity (CHEK1): CHEK1; Activity (NEK2): NEK2
5 | CC(=O)Nc1cccc(-c2ccc3nccc(Nc4ccc(N5CCN(C)CC5)cc4)c3c2)c1 [N-(3-(4-(4-(4-methylpiperazin-1-yl)phenylamino)quinolin-6-yl)phenyl)acetamide] | PRAK | MAPKAPK2 | – | Activity (GSK3-α): GSK3-α
6 | CN(C)CCN1CCN(c2ccc(Nc3ccnc4ccc(-c5ccc(C#N)cc5)cc34)cc2)CC1 [4-(4-(4-(4-(2-(dimethylamino)ethyl)piperazin-1-yl)phenylamino)quinolin-6-yl)benzonitrile] | – | MAPKAPK2 | – | Activity (CHEK1): CHEK1; Activity (C-TAK1): C-TAK1
7 | Cc1ccc(C)c(-c2ccc3nccc(Nc4ccc(N5CCN(C)CC5)cc4)c3c2)c1 [6-(2,5-dimethylphenyl)-N-(4-(4-methylpiperazin-1-yl)phenyl)quinolin-4-amine] | PRAK | MAPKAPK2 | – | Activity (AKT3): AKT3; Activity (NEK2): NEK2
8 | CN1CCN(c2ccc(Nc3ccnc4ccc(-c5cccc6cccnc56)cc34)cc2)CC1 [N-(4-(4-methylpiperazin-1-yl)phenyl)-6,8′-biquinolin-4-amine] | PRAK | MAPKAPK2 | BMX | Activity (KIT): KIT
9 | CN1CCN(c2ccc(Nc3ccnc4ccc(-c5cccc([N+](=O)[O-])c5)cc34)cc2)CC1 [N-(4-(4-methylpiperazin-1-yl)phenyl)-6-(3-nitrophenyl)quinolin-4-amine] | PRAK | – | – | Activity (AKT3): AKT3
10 | CN1CCN(c2ccc(Nc3ccnc4ccc(-c5ccc(C(C)(C)C)cc5)cc34)cc2)CC1 [6-(4-tert-butylphenyl)-N-(4-(4-methylpiperazin-1-yl)phenyl)quinolin-4-amine] | PRAK | MAPKAPK2 | – | Activity (CHEK1): CHEK1; Activity (C-TAK1): C-TAK1; Activity (NEK2): NEK2
11 | CN1CCN(c2ccc(Nc3ccnc4ccc(-c5ccc(C(F)(F)F)cc5)cc34)cc2)CC1 [N-(4-(4-methylpiperazin-1-yl)phenyl)-6-(4-(trifluoromethyl)phenyl)quinolin-4-amine] | PRAK | – | – | Activity (CHEK1): CHEK1; Activity (C-TAK1): C-TAK1; Activity (NEK2): NEK2
12 | CN1CCN(c2ccc(N(C)c3ccnc4ccc(-c5ccc(C#N)cc5)cc34)cc2)CC1 [4-(4-(methyl(4-(4-methylpiperazin-1-yl)phenyl)amino)quinolin-6-yl)benzonitrile] | – | MAPKAPK2 | BMX | Activity (KIT): KIT; Activity (FLT-3): FLT-3
13 | CCC(C)N1CCN(c2ccc(Nc3ccnc4ccc(-c5ccc(C#N)cc5)cc34)cc2)CC1 (stereo not drawn) [4-(4-(4-(4-sec-butylpiperazin-1-yl)phenylamino)quinolin-6-yl)benzonitrile] | – | MAPKAPK2 | BMX | –
14 | COc1ccc(-c2ccc3nccc(Nc4ccc(N5CCN(C(C)C)CC5)cc4)c3c2)cc1 [N-(4-(4-isopropylpiperazin-1-yl)phenyl)-6-(4-methoxyphenyl)quinolin-4-amine] | – | MAPKAPK2 | BMX | –
